Results: patent US6852526B2, “Transdermal assay with magnetic clamp” (Transform Pharmaceuticals, Inc., priority 2000, dated 2005)
Values joined by “and” are separate entries in the source; they are usually repeats but may differ in a detail not shown here. Identical values can stand only once. Counter-ions that a name gives are not always drawn. Like-named read-outs stand apart in the source and are kept apart here.

Experiments:
[1] = cited from earlier work
[2] = Method: Human cadaver skin epidermis was prepared by first separating skin from the underlying fat and then separating the epidermis by heat treatment at 60° C. for 90 seconds using standard techniques.
An apparatus as described in FIG. 6 was assembled, wherein each plate in the apparatus was a rectangular shape having dimensions of 5.030″ (127.76 mm) by 3.365″ (85.48 mm). The apparatus was assembled by first placing a ⅛″ (3.175 mm) thick clear polycarbonate spacer plate 620 on top of an aluminum base plate 610 and aligning screw holes 622 in the spacer plate with screw holes 612 in the base plate. Thereafter, a 4×4 sample array was created on spacer plate 620, as described in Table 2 below:
Punched samples were placed on spacer plate 620 in the 4×4 array of Table 2 one at a time, and the location of each array sample was selected using guide marks 614 on base plate 610 to ensure that each array sample was placed such that it aligned with a donor reservoir 654 in reservoir plate 650. There were 96, 0.020″ (0.508 mm) deep, guide marks 614 on base plate 610, arranged in a 12×8 array which was located 11.24 mm in from the edges of the long sides of base plate 610, and 14.38 mm in from the edges of its short sides. At the time of placement, the release liner on each sample was removed to expose the drug reservoir/adhesive of the sample.
Array locations B3, C1, and D3 were controls without any samples in order to determine the potential impact of lateral diffusion on transdermal transport measurements with this apparatus.
Once all the samples were placed in the array, the piece of heat-stripped human cadaver skin, the size of which was larger than the array of samples, was gently and slowly placed over the samples so as to avoid any air pockets between the skin and the samples. The skin was oriented with the stratum corneum next to the samples. Then, a ¼″ (6.35 mm) thick clear polycarbonate reservoir plate 650 having an 4×4 array of ¼″ (6.35 mm) diameter donor reservoirs 654 was placed over the skin such that all of screw holes 652 on reservoir plate 650 were aligned with the corresponding screw holes 622 of spacer plate 620.
The resulting assembled apparatus 600 was clamped together by sliding a shoulder screw 660 with threads 622 through aligned screw holes 652 at each of the four corners of the assembled apparatus, and tightening each shoulder screw 660 so as to form a seal between reservoir plate 650 and the skin.
[…] of Dulbecco's Phosphate Buffered Saline (PBS) was added to each donor reservoir in the array as the reservoir medium.
After 2 hours, a […] test aliquot of reservoir medium was removed from each donor reservoir 654, and at that time, an additional […] of PBS was added into each donor reservoir 654. Each of the 2-hour test aliquots was placed in an HPLC vial and diluted to […] by addition of […] of 50:50 (v/v) 50 mM potassium phosphate (adjusted to pH 3.0 with phosphoric acid) and acetonitrile.
The foregoing process was repeated at 3 hours, 4 hours, and 5 hours.
The components of the HPLC system used to analyze the test aliquots were a Waters 2790 Separations Module, a Waters Photodiode Array Detector Model 996, and Waters Millennium 32 v3.2 Chromatography Software (Waters Corp., Milford Mass.).
The HPLC analysis was performed using a Platinum EPS C18 column (Alltech Associates, Muskegan, Mich.) with dimensions of 250 mm×4.6 mm and a […] particle size. The mobile phase was 50:50 (v/v) 50 mM potassium phosphate (adjusted to pH 3.0 with phosphoric acid): acetonitrile, with a flow rate of 1.0 ml/minute. Detection was performed by measuring UV absorbance at a wavelength of 260 nm. The run time was 4 minutes. Injection volume was […]. Column temperature was ambient.

[3] = passive experiments; cited from earlier work
[4] = empty control location (B3, C1, D3), no sample: lateral diffusion, 2 hour
[5] = empty control location (B3, C1, D3), no sample: lateral diffusion, 3 hour
[6] = empty control location (B3, C1, D3), no sample: lateral diffusion, 4 hour
[7] = sample* (A4, D1): drug reservoir came off the backing with the release liner, 2 hour
[8] = sample* (A4, D1): drug reservoir came off the backing with the release liner, 3 hour
[9] = sample* (A4, D1): drug reservoir came off the backing with the release liner, 4 hour
[10] = sample* (A4, D1): drug reservoir came off the backing with the release liner, 5 hour

COC1=CC(=O)C[C@@H](C)[C@]12Oc1c(Cl)c(OC)cc(OC)c1C2=O [griseofulvin]
Properties: absorption / water solubility [1]: Poor absorption due to its low water

CC(C)(C)NC(=O)[C@@H]1C[C@@H]2CCCC[C@@H]2CN1C[C@@H](O)[C@H](Cc1ccccc1)NC(=O)[C@H](CC(N)=O)NC(=O)c1ccc2ccccc2n1 [saquinavir]
Properties: absorption / water solubility [1]: Poor absorption due to its low water

CN1CCCC1c1cccnc1 (centres unmarked) [Nicotine, nicotine]
transdermal movement of the active component ([2]; detected in donor reservoirs over NICODERM CQ samples): crossed the skin barrier
lateral diffusion to adjacent wells ([2]; donor reservoirs not located over samples): sufficiently slower than direct transdermal movement
Nicotine Concentration Of Diluted Test Aliquots [2, 4]: 2.2 mg/mL and 1.5 mg/mL and 2.6 mg/mL
Nicotine Concentration Of Original Test Aliquots [2, 4]: 22.0 mg/mL and 15.0 mg/mL and 26.0 mg/mL
Nicotine Accumulation in donor reservoir ([2]; empty control location (B3, C1, D3), no sample: lateral diffusion, 2 hr): 1.650 mg and 1.125 mg and 1.950 mg
Nicotine Concentration Of Diluted Test Aliquots [2, 5]: 2.5 mg/mL and 3.2 mg/mL and 4.0 mg/mL
Nicotine Concentration Of Original Test Aliquots [2, 5]: 25.0 mg/mL and 32.0 mg/mL and 40.0 mg/mL
Nicotine Accumulation in donor reservoir ([2]; empty control location (B3, C1, D3), no sample: lateral diffusion, 3 hr): 4.663 mg and 3.150 mg and 4.300 mg
Nicotine Concentration Of Diluted Test Aliquots [2, 6]: 4.8 mg/mL and 2.7 mg/mL and 4.2 mg/mL
Nicotine Concentration Of Original Test Aliquots [2, 6]: 48.0 mg/mL and 27.0 mg/mL and 42.0 mg/mL
Nicotine Accumulation in donor reservoir ([2]; empty control location (B3, C1, D3), no sample: lateral diffusion, 4 hr): 7.075 mg and 4.375 mg and 6.450 mg
Nicotine Accumulation in donor reservoir ([2]; empty control location (B3, C1, D3), no sample: lateral diffusion, 5 hr): 10.975 mg and 5.650 mg and 8.925 mg
Nicotine Concentration Of Diluted Test Aliquots [2, 7]: 1.0 mg/mL and 1.1 mg/mL
Nicotine Concentration Of Original Test Aliquots [2, 7]: 10.0 mg/mL and 11.0 mg/mL
Nicotine Accumulation in donor reservoir ([2]; sample* (A4, D1): drug reservoir came off the backing with the release liner, 2 hr): 0.825 mg and 0.750 mg
Nicotine Concentration Of Diluted Test Aliquots [2, 8]: 1.2 mg/mL and 1.4 mg/mL
Nicotine Concentration Of Original Test Aliquots [2, 8]: 12.0 mg/mL and 14.0 mg/mL
Nicotine Accumulation in donor reservoir ([2]; sample* (A4, D1): drug reservoir came off the backing with the release liner, 3 hr): 1.600 mg and 1.400 mg
Nicotine Concentration Of Diluted Test Aliquots [2, 9]: 1.4 mg/mL and 1.6 mg/mL
Nicotine Concentration Of Original Test Aliquots [2, 9]: 14.0 mg/mL and 16.0 mg/mL
Nicotine Accumulation in donor reservoir ([2]; sample* (A4, D1): drug reservoir came off the backing with the release liner, 4 hr): 2.450 mg and 2.150 mg
Nicotine Concentration Of Diluted Test Aliquots [2, 10]: 1.6 mg/mL and 1.8 mg/mL
Nicotine Concentration Of Original Test Aliquots [2, 10]: 16.0 mg/mL and 18.0 mg/mL
Nicotine Accumulation in donor reservoir ([2]; sample* (A4, D1): drug reservoir came off the backing with the release liner, 5 hr): 3.400 mg and 3.000 mg

CCCCCCCC/C=C\CCCCCCCC(=O)OCC(COC(=O)CCCCCCC/C=C\CCCCCCCC)OC(=O)CCCCCCC/C=C\CCCCCCCC [glycerol trioleate]
corticosterone flux enhancement relative to the passive flux from PBS alone [3]: 0.8

CCCc1nn(C)c2c(=O)[nH]c(-c3cc(S(=O)(=O)N4CCN(C)CC4)ccc3OCC)nc12 [sildenafil citrate]
Properties: absorption / water solubility [1]: Poor absorption due to its low water

CCCCCCCCCCCCCC(=O)OC(C)C [isopropyl myristate]
corticosterone flux enhancement relative to the passive flux from PBS alone [3]: 5

CC(=O)O[C@H]1C(=O)[C@@]2(C)[C@H]([C@H](OC(=O)c3ccccc3)[C@]3(O)C[C@H](OC(=O)[C@H](O)[C@@H](NC(=O)c4ccccc4)c4ccccc4)C(C)=C1C3(C)C)[C@]1(OC(C)=O)CO[C@@H]1C[C@@H]2O [paclitaxel]
Properties: absorption / water solubility [1]: Poor absorption due to its low water

polyethylene glycol 200 dilaurate
corticosterone flux enhancement relative to the passive flux from PBS alone [3]: 2

CC(C)c1nc(CN(C)C(=O)N[C@H](C(=O)N[C@@H](Cc2ccccc2)C[C@H](O)[C@H](Cc2ccccc2)NC(=O)OCc2cncs2)C(C)C)cs1 [ritonavir]
Properties: polymorphic stability ([1]; shipping and storage): Can undergo a polymorphic shift during
